Reference: US20220378948A1, “METAL-BINDING PEPTIDE, AND USE THEREOF” (The Jikei University, priority 2019, published 2022)

Assay: Adsorption on stent in plasma, fluorescence microscopy
Type: binding
Details: stent immersed in human plasma (37° C., 30 minutes), then 0.5 mM solution
Procedure: Next, in order to analyze the binding ability of the peptide of the present invention and the 4-branched peptide complex to a stent existing in plasma, whether or not the peptide of the present invention also binds to a stent that has been allowed to come into contact with plasma was examined.
That is, a stent was immersed in human plasma (37° C., 30 minutes), and was then removed from the plasma. The stent was then immersed in each peptide solution (0.5 mM) and a 4-branched peptide complex solution (0.5 mM) (37° C., 30 minutes). Thereafter, the stent was sufficiently rinsed with PBS, and was then observed under an upright fluorescence microscope.

Q: With “SEQ ID NO: 9: control peptide that does not bind to a Co—Cr stent; sequence not printed in the text (MKAHHSQLYPRH)” as the substance, how does the “binding to the surface of a stent in human plasma (fluorescence)” value read?
A: does not bind to a Co—Cr stent
